Where a name gives a salt, the structure may show the parent alone.
Key:
[1] = test system: methacholine (MCh)-induced bronchoconstriction; assay: Einthoven assay: bronchoprotection against methacholine-induced bronchoconstriction; format: in vivo, rat; settings: male Sprague-Dawley rats, inhalation, 100 μg, at 24 h
Description: This assay measures the ability of a test compound to provide bronchoprotection against methacholine (MCh)-induced bronchoconstriction in a rat.
Male Sprague-Dawley rats (Harlan, Indianapolis, Ind.), weighing between 200 g and 350 g, were used for all studies.
Test compound or vehicle (sterile deionized water) were dosed by inhalation (IH) over a 10 min period in a pie shaped inhalation chamber (R+S Molds, San Carlos, Calif.) using 5 mL of dosing solution. Rats were exposed to an aerosol, which was generated from an LC Star Nebulizer Set Model 22F51 (PARI Respiratory Equipment, Inc. Midlothian, Va.) driven by Bioblend (5% CO2/95% atmospheric air) at a pressure of 22 psi. Rats were dosed with 100 μg of test compound unless otherwise indicated.
At predetermined time points, rats were anesthetized with an intraperitoneal (IP) injection of 120 mg/kg inactin (thiobutabarbital). A supplemental dose (40 mg/kg, IP) was administered if the animal responded to physical stimuli (e.g. toe pinch). The surgical site was shaved and a 1-2 cm midline incision of the ventral aspect of the neck was made. […]
Changes in VP were recorded using the Acknowledge Data Collection Software (Santa Barbara, Calif.). […] Changes in ventilation pressure (cm H2O) in treated animals are expressed as % inhibition of MCh response relative to control animals.

[2] = Differential scanning calorimetry (thermal stability); format: physicochemical; settings: DSC traces, 10° C./min
Description: Differential scanning calorimetry (DSC) was performed using a TA Instruments Model Q-100 module with a Thermal Analyst controller. Data were collected and analyzed using TA Instruments Thermal Solutions software. A sample of about 2 mg was accurately weighed into an aluminum pan with lid. The sample was evaluated using a linear heating ramp of 10° C./min from ambient temperature to approximately 300° C. The DSC cell was purged with dry nitrogen during use. Representative DSC traces for Form 1 and Form 2 are shown in FIG. 2 and FIG. 5, respectively.

[3] = Dynamic moisture sorption (DMS) assessment; format: physicochemical
Description: A dynamic moisture sorption (DMS) assessment (also known as a moisture sorption-desorption profile) was performed for a sample of Form 2 using a VTI atmospheric microbalance, SGA-100 system (VTI Corp., Hialeah, Fla. 33016). A sample size of approximately 10 mg was used and the humidity was set at the ambient value at the start of the analysis. A typical DMS analysis consisted of three scans: ambient to 5% relative humidity (RH), 5% RH to 90% RH, 90% RH to 5% RH at a scan rate of 5% RH/step. The mass was measured every two minutes and the RH was changed to the next value (+/−5% RH) when the mass of the sample was stable to within 0.01% for 5 consecutive points.

[4] = reversible moisture sorption/desorption profile

SMILES: CN(CCCCC(=O)Nc1ccc(CNC[C@H](O)c2ccc(O)c3[nH]c(=O)ccc23)cc1)C(=O)CCN1CCC(OC(=O)Nc2ccccc2-c2ccccc2)CC1 [Biphenyl-2-ylcarbamic Acid 1-(2-{[4-(4-{[(R)-2-hydroxy-2-(8-hydroxy-2-oxo-1,2-dihydroquinolin-5-yl)ethylamino]methyl}phenylcarbamoyl)-butyl]methylcarbamoyl}ethyl)piperidin-4-yl Ester Ditrifluoroacetic Acid Salt]
- % inhibition of MCh response [1]: at least 40%

SMILES: CN(CCCCC(=O)Nc1ccc(CNC[C@H](O)c2ccc(O)c3[nH]c(=O)ccc23)cc1)C(=O)CCN1CCC(OC(=O)Nc2ccccc2-c2ccccc2)CC1 [Form 1, Biphenyl-2-ylcarbamic Acid 1-(2-{[4-(4-{[(R)-2-Hydroxy-2-(8-hydroxy-2-oxo-1,2-dihydroquinolin-5-yl)ethylamino]methyl}-phenylcarbamoyl)butyl]methylcarbamoyl}ethyl)piperidin-4-yl Ester Oxalate Isopropanol Solvate Salt (Form 1)]
- thermal stability [2]: excellent thermal stability

SMILES: CN(CCCCC(=O)Nc1ccc(CNC[C@H](O)c2ccc(O)c3[nH]c(=O)ccc23)cc1)C(=O)CCN1CCC(OC(=O)Nc2ccccc2-c2ccccc2)CC1 [Form 2, Biphenyl-2-ylcarbamic Acid 1-(2-{[4-(4-{[(R)-2-Hydroxy-2-(8-hydroxy-2-oxo-1,2-dihydroquinolin-5-yl)ethylamino]methyl}-phenylcarbamoyl)butyl]methylcarbamoyl}ethyl)piperidin-4-yl Ester Oxalate Hydrate Salt (Form 2)]
- change in physical form during moisture sorption and desorption (PXRD before and after DMS) ([3]; PXRD profiles before and after the DMS experiment): no change in physical form occurred
- weight gain (moisture sorption) ([3]; humidity range of 5% RH to 90% RH): about 1.6 weight %
- deliquescence [3, 4]: not deliquescent
- hygroscopicity [3, 4]: acceptable hygroscopicity
